Entries after “also recorded” stand apart in the source; their conditions may differ.
Key:
[1] = tested on: homologous recombination (HR); settings: via inhibition of ATM kinase / p53 ser-15 phosphorylation; cited from earlier work
[2] = tested on: mutant eGFP gene in DLD-1-1 cells; experiment: eGFP gene correction (oligonucleotide-directed sequence alteration) in DLD-1-1 cells, FACS readout; format: cell-based
Experimental: Cell line and culture conditions: DLD-1 cells are obtained from ATCC (American Type Cell Culture, Manassas, Va.). DLD-1 integrated clone 1 (DLD-1-1) is obtained by integration of the vector pEGFP-N3 containing a single point mutation (TAG) in the eGFP gene, as described in copending U.S. patent application Ser. No. 10/986,418, filed Nov. 10, 2004 (“Mammalian Cell Lines for Detecting, Monitoring, and Optimizing Oligonucleotide-Mediated Chromosomal Sequence Alteration”). Cells are grown in RPMI 1640 medium with 2 mM glutamine, 4.5 g/L glucose, 10 mM HEPES, 1 mM sodium pyruvate and supplemented with 10% FBS. Cells are maintained at 5% CO2, 37° C. and under selection in 200 μg/ml G418 (Gibco, Invitrogen Co., Carlsbad, Calif.).
eGFP gene correction: Cells grown in complete medium supplemented with 10% FBS are trypsinized and harvested by centrifugation. The cell pellet is resuspended in serum-free medium at a density of 1×10^6 cells/100 μl and transferred to a 4 mm gap cuvette (Fisher Scientific, Pittsburgh, Pa.). The oligonucleotide is then added at a concentration of 4 μM and the cells are electroporated (LV, 250V, 13 msec, 2 pulses, 1 second interval) using a BTX ECM830 apparatus (BTX, Holliston, Mass.). The cells are then transferred to a 60 mm dish containing fresh medium supplemented with 10% FBS and incubated for 48 hrs at 37° C. before harvesting for FACS analysis.
The percentage of converted cells in a whole population is then calculated by CellQuest™ (Becton Dickinson) and GFP/PI programs. The correction efficiency is determined by dividing the number of eGFP positive cells by the number of cells analyzed in each experiment (usually 50,000 cells). Each clone is tested three times to determine the standard deviation of the correction efficiency, with standard deviation calculated using Microsoft Excel.
The experimental strategy involves the introduction of oligonucleotides into DLD-1-clone 1 cells by electroporation followed by phenotypic readout of the corrected eGFP gene, 48 hours later. The correcting oligonucleotide (EGFP3S/72NT) is 72 bases in length (72-mer), complementary to the non-transcribed strand of the mutant eGFP gene but designed to create a single mismatch in the third base of codon 67 (see FIG. 1A). It directs conversion of a TAG→TAC codon which enables phenotypic expression of eGFP, which can be detected by FACS. FIG. 1B outlines the sequence of the target gene, the 72-mer and a nonspecific 74-mer used as a control.
Oligonucleotide-Directed Sequence Alteration: The resulting synchronized populations of cells, and asynchronous controls, are grown in complete medium supplemented with 10% FBS and trypsinzed and harvested by centrifugation at 1500 rpm for 5 minutes. The cell pellet is resuspended in fresh serum-free medium at a density of 2×10^6 cells/100 μl. The entire cell suspension is mixed with 20 μg of EGFP/72NT and transferred into a 4 mm gap cuvette (Fisher Scientific, Pittsburgh, Pa., USA) followed by electroporation with two 250V pulses, each 13 ms in duration, with one second between pulses, unipolar.
Cells are incubated at room temperature for 30 min. […] Frequency of converted cells are calculated by CellQuest™ and GFP/PI programs.
Double Thymidine Block: Cells are synchronized in G1 or at the G1/S border by a double thymidine block. Twenty-four hours prior to the addition of any agent (HU, etc.), cells are plated at a density of 0.5×10^6 cells per 100 mm dish, followed by incubation in 2 mM thymidine (Sigma) for 16 hrs, washed and released in fresh medium for 10 hrs, then incubated in 2 mM thymidine for an additional 15 hrs.
FACS is then used to analyze 50,000 cells from each population to determine the percentage of cells expressing functional eGFP, as described in Example 1.

[3] = tested on: α-galactosidase A (GLA) activity in Fabry's cell line DMN-1; experiment: GLA activity in Fabry's cells after ODSA; format: cell-based, human
From the text: Cell line DMN-1, a human fibroblast cell line derived from a human patient with Fabry's disease, is obtained from the National Institutes of Health (NIH). These cells are used to measure the efficiency of correction of a mutant allele of α-galactosidase A (GLA) using methods of the present invention. The specific disease-causing mutation in the Fabry's cell line used herein is A143P, caused by a G→C mutation in the gene. See Branton et al., Medicine (Baltimore) (2002) 81(2): 122-38.
All four oligonucleotides are used to effect ODSA substantially as described in Example 1, with the exception that cells are transfected with oligonucleotides, rather than electroporated. Oligos are added at 5 μg, 10 μg or 30 μg per reaction. After ODSA is performed, cells are cultured and assayed for GLA activity according to the method of Brady, as described in Medin et al., Proc. Natl. Acad. Sci. (USA) (1996) 93:7917-22, the disclosure of which is incorporated herein by reference in its entirety. The GLA activity is used as a measure of gene correction by comparing the activities in treated versus untreated cultures. The correction efficiency is subsequently confirmed by sequencing of the locus of mutation in a number of treated cells.
[…] Unlike the experiments involving correction of eGFP in DLD-1-1 cells described in Example 1, however, certain of the agents (VPA, caffeine, TSA) in the experiments in this example are not added before transfection, but are instead added only after transfection, during the recovery period.
The means of introducing oligonucleotide into the target cells also differs from previous examples, with transfection in the presence of the transfection enhancing agent FuGENE™ 6 (FG) (Roche Diagnostics Corp., Indianapolis, Ind., USA) being used rather than electroporation. Each transfection reaction includes 100 μl of target cells and 12 μl of FG unless otherwise indicated, despite the fact that FG is not explicitly listed for each datapoint in the relevant figures. Otherwise the procedures used in the DLD-1-1 experiments and the Fabry's experiments are similar.
The results of a further series of experiments are shown at FIG. 15D, where the data are presented as GLA activity as nanomolar (nM) concentration of the product of the GLA assay generated per hour per unit protein concentration (as are the data in FIGS. D and E).

Q: With Cn1c(=O)c2c(ncn2C)n(C)c1=O [caffeine] as the compound, how does the “reduction of the level of HR” value [1] read?
A: 60-90%

Q: What about the “effect on correction efficiency, recovery phase” value ([2]; 4 mM caffeine after electroporation, up to 48 hrs) of the same compound?
A: dramatically increases correction efficiency; also recorded: stimulates correction; also recorded: the greater the enhancement of correction efficiency

Q: What about the “effect on MMS-enhanced correction” value ([2]; 4 mM caffeine in addition to 0.2 μM MMS) of the same compound?
A: completely suppressing the enhancement otherwise caused by MMS

Q: What about the “effect on correction efficiency” value ([2]; 4 mM caffeine pre-treatment, with or without 0.2 μM MMS) of the same compound?
A: lower than the control experiment; also recorded: ineffective at increasing the efficiency of gene repair

Q: What about the “effect on correction efficiency, pretreatment” value ([2]; 4 mM caffeine prior to electroporation) of the same compound?
A: decreases correction efficiency; also recorded: inhibits oligonucleotide-directed gene correction; also recorded: reduction in basal repair levels

Q: And the correction levels ([2]; caffeine added to ddC-treated cells, pretreatment (FIG. 20))?
A: 0.6%

Q: And the “effect on ddC-stimulated gene repair” value ([2]; inhibitor added with ddC before electroporation (FIG. 20))?
A: blocks the stimulation in gene repair caused by ddC treatment; also recorded: knocks down correction induced by ddC

Q: And the “effect on GLA activity” value ([3]; synchronized cells treated with 0.3 mM HU, 4 mM caffeine during recovery period)?
A: modest effect on GLA activity

Q: What about the “effect on ddC-enhanced GLA activity” value ([3]; synchronized cells, 500 μM ddC, 4 mM caffeine or 100 ng/ml TSA during recovery period) of the same compound?
A: eliminate the ability of 500 μM ddC to enhance GLA activity
